Reference: PubChem BioAssay (NCI)
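Dose response: 5 concentrations. Exposure: 48 h. Format: 96-well plates. Endpoint: linear interpolation; highest concentration if not reached. TGI: total growth inhibition.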

Legend:
Assay in all cases: NCI anticancer screen, dose series, 48 h
OVCAR-8 ovarian = system: OVCAR-8 ovarian
RPMI-8226 leukemia = system: RPMI-8226 leukemia
SK-MEL-5 melanoma = system: SK-MEL-5 melanoma
UACC-62 melanoma = system: UACC-62 melanoma
SN12C renal = system: SN12C renal
KM12 colon = system: KM12 colon
SF-295 CNS = system: SF-295 CNS
MDA-MB-435 = system: MDA-MB-435
HCC-2998 colon = system: HCC-2998 colon
PC-3 prostate = system: PC-3 prostate
DU-145 prostate = system: DU-145 prostate

Row | SMILES | TGI (OVCAR-8 ovarian) | TGI (RPMI-8226 leukemia) | TGI (SK-MEL-5 melanoma) | TGI (UACC-62 melanoma) | TGI (SN12C renal) | TGI (KM12 colon) | TGI (SF-295 CNS) | TGI (MDA-MB-435) | TGI (HCC-2998 colon) | TGI (PC-3 prostate) | TGI (DU-145 prostate)
1 | NC(=O)CN1C=CCC(C(N)=O)=C1 | > 100 µM | > 100 µM | > 100 µM | > 100 µM | > 100 µM | > 100 µM | > 100 µM | > 100 µM | > 100 µM | > 100 µM | > 100 µM
2 | Cc1c([C@H](C)[C@@H]2NC[C@@H](C)C[C@H]2O)ccc2c1C[C@H]1[C@H]2CC=C2C[C@@H](O)CC[C@@]21C | > 100 µM | 17.9 µM | 22.9 µM | 28.1 µM | 69.5 µM | 37.2 µM | 40.8 µM | 26.4 µM | 30 µM | 32.1 µM | > 100 µM
3 | CC(C)(C)OC(=O)c1ccc(NCC2=C(Br)C(=O)C=CC2=O)cc1 | 39.8 µM | > 100 µM | 41.6 µM | 36.1 µM | 44 µM | > 100 µM | > 100 µM | 41.3 µM | 48 µM | > 100 µM | > 94.3 µM
4 | COC1=CC(=O)N(C)C(O)C1(C#N)OC1OC(CO)C(O)C(O)C1O (stereo not drawn) | > 100 µM | > 100 µM | > 100 µM | > 100 µM | > 100 µM | > 100 µM | > 100 µM | > 100 µM | > 100 µM | > 100 µM | > 100 µM
5 | COc1ccccc1NC(=O)CC(=O)NN | > 100 µM | > 100 µM | > 100 µM | > 100 µM | > 100 µM | > 100 µM | > 100 µM | > 100 µM | > 100 µM | > 100 µM | > 100 µM
6 | CCNc1cc2c3c(c1)CCN3CCC2 | > 10 µM | > 10 µM | > 10 µM | > 10 µM | > 10 µM | > 10 µM | > 10 µM | > 10 µM | > 10 µM | > 10 µM | > 10 µM
7 | C=C1CC(C)(c2cccc(Nc3nc4ccccc4c4occc34)c2)OC1=O (stereo not drawn) | 21.3 µM | 4.62 µM | 28.3 µM | 2.43 µM | 7.75 µM | 43.8 µM | 34.9 µM | 21.8 µM | 5.84 µM | 21.9 µM | 19.9 µM
8 | O=c1[nH]nc(Cc2ccc(Cl)cc2)n1/N=C/c1ccc([N+](=O)[O-])o1 | > 32.2 µM | 6.48 µM | > 38.5 µM | 9.09 µM | > 100 µM | 6.59 µM | 16.2 µM | 11.9 µM | 4.82 µM | > 75.1 µM | > 36.7 µM
9 | Cc1ccccc1NC(=O)CC(=O)NNC(Sc1ccccc1)c1cc(N=Nc2ccc(Br)cc2)ccc1O (stereo not drawn) | 2.12 µM | 9.06 µM | 3.42 µM | 8.65 µM | > 10 µM | > 10 µM | > 10 µM | > 10 µM | > 10 µM | > 10 µM | > 10 µM
10 | CC1CCC2(OC1)OC1C(O)C3C4CCC5CC(OC6OC(CO)C(OC7OC(CO)C(O)C(OC8OCC(O)C(O)C8O)C7OC7OC(CO)C(O)C(OC8OC(CO)C(O)C(O)C8O)C7O)C(O)C6O)C(O)CC5(C)C4CCC3(C)C1C2C (stereo not drawn) | 4.21 µM | 9.28 µM | 15.9 µM | 14.1 µM | 9.88 µM | 4.77 µM | 3.66 µM | 30 µM | 4.69 µM | 10.3 µM | 4.63 µM
11 | CCOC(=O)Nc1ccc(S(=O)(=O)Nn2cnnc2)cc1 | > 100 µM | 94.3 µM | > 100 µM | > 100 µM | > 100 µM | > 100 µM | > 100 µM | 49.7 µM | 74.5 µM | > 100 µM | > 100 µM
12 | CC(CNC(N)=O)NC(N)=O (stereo not drawn) | > 100 µM | > 100 µM | > 100 µM | > 100 µM | > 100 µM | > 100 µM | > 100 µM | > 100 µM | > 100 µM | > 100 µM | > 100 µM
13 | Cc1ncc(COP(=O)(O)O)c(/C=C2\SC(=S)NC2=O)c1O | > 100 µM | > 100 µM | > 100 µM | > 100 µM | > 100 µM | > 100 µM | > 100 µM | > 100 µM | > 100 µM | > 100 µM | > 100 µM
14 | COC(NC(=O)Nc1ccccc1C)(C(F)(F)F)C(F)(F)F | > 100 µM | > 100 µM | > 100 µM | > 100 µM | > 100 µM | > 100 µM | > 100 µM | > 100 µM | > 100 µM | > 100 µM | > 100 µM
15 | C#CCOC(=O)c1ccc(OC(C)=O)cc1 | > 100 µM | > 100 µM | > 100 µM | > 100 µM | > 100 µM | > 100 µM | > 100 µM | > 100 µM | > 100 µM | > 100 µM | > 100 µM
16 | CC1=CCC[C@H]2[C@](C)(CC3=CC(=O)C(SCC(C)C)=CC3=O)[C@@H](C)CC[C@]12C | 26.1 µM | 14.3 µM | 31.5 µM | 28.8 µM | > 57.5 µM | 28 µM | 34.6 µM | 32.5 µM | 31.5 µM | 30.9 µM | 30.9 µM
17 | C[C@H](C1CC2(C)OC2(C)C(=O)O1)[C@H]1CC[C@H]2[C@@H]3[C@@H]4O[C@@H]4[C@@]4(O)CC=CC(=O)[C@]4(C)[C@H]3CC[C@]12C (stereo partly drawn) | > 50 µM | > 50 µM | > 50 µM | > 50 µM | > 50 µM | > 50 µM | > 50 µM | > 50 µM | > 50 µM | > 50 µM | > 50 µM
18 | O=C(O)c1cccc(NC(C(=O)c2ccccc2)c2ccccc2)c1 (stereo not drawn) | > 100 µM | > 100 µM | > 100 µM | > 100 µM | > 100 µM | > 100 µM | > 100 µM | > 100 µM | > 100 µM | > 100 µM | > 100 µM
19 | OC(NN=C1CCCC1)(C(F)(F)Cl)C(F)(F)Cl | > 10 µM | > 10 µM | > 10 µM | > 10 µM | > 10 µM | > 10 µM | > 10 µM | > 10 µM | > 10 µM | > 10 µM | > 10 µM
20 | COc1ccc2cc(C(C)C(=O)N3C(=O)OCC3(C)C)ccc2c1 (stereo not drawn) | > 100 µM | > 100 µM | > 100 µM | > 100 µM | > 100 µM | – | > 100 µM | > 100 µM | > 100 µM | > 100 µM | > 100 µM
21 | CC(C)CCOC(=O)NC(Nc1ccc(F)cc1)(C(F)(F)F)C(F)(F)F | > 100 µM | > 100 µM | > 100 µM | > 100 µM | > 100 µM | > 100 µM | > 100 µM | > 100 µM | > 100 µM | > 100 µM | > 100 µM
22 | CCOC(=O)c1cc(Br)c(-c2onc(C)c2Br)[nH]1 | 82.6 µM | > 100 µM | > 100 µM | > 100 µM | > 100 µM | > 100 µM | > 100 µM | > 100 µM | > 100 µM | > 100 µM | > 100 µM
23 | CC(=O)OC[C@H]1On2nnnc2[C@H](OC(C)=O)[C@@H](OC(C)=O)[C@@H]1OC(C)=O | > 100 µM | > 100 µM | > 100 µM | > 100 µM | > 100 µM | > 100 µM | > 100 µM | > 100 µM | > 100 µM | > 100 µM | > 100 µM
24 | Clc1cc(Cl)ncn1 | > 100 µM | > 100 µM | > 100 µM | > 100 µM | > 100 µM | > 100 µM | > 100 µM | > 100 µM | > 100 µM | > 100 µM | > 100 µM
25 | O=C(Nc1nn[nH]n1)c1nc(-c2ccccc2)cc(=O)[nH]1 | > 100 µM | > 100 µM | > 100 µM | > 100 µM | > 100 µM | > 100 µM | > 100 µM | > 100 µM | > 100 µM | > 100 µM | > 100 µM
26 | NC(N)=NC1C(O)C(O)C(O)C(N=C(N)N)C1O (stereo not drawn) | > 100 µM | > 100 µM | > 100 µM | > 100 µM | > 100 µM | > 100 µM | > 100 µM | > 100 µM | > 100 µM | > 100 µM | > 100 µM
27 | O=[Se](O)O | 8.83 µM | > 100 µM | 8.68 µM | 4.66 µM | > 100 µM | > 64.6 µM | 1.7 µM | > 100 µM | > 100 µM | 7.63 µM | 10.8 µM
28 | CCN(CC)C(=O)CCN1CC1 | > 10 µM | > 10 µM | > 10 µM | > 10 µM | > 10 µM | > 10 µM | > 10 µM | > 10 µM | > 10 µM | > 10 µM | > 10 µM
29 | CC(C)=CCC[C@@H](C)C1=C(O)C(Nc2ccccc2I)=C(C)C(=O)C1=O | > 32.2 µM | > 36.8 µM | 23 µM | 31.3 µM | > 75 µM | 19.7 µM | > 38.9 µM | > 75 µM | 56.7 µM | > 51.8 µM | 69.2 µM
30 | O=C1/C(=C/c2cccc3ccccc23)CCc2ccc([N+](=O)[O-])cc21 | > 100 µM | > 100 µM | – | 65.8 µM | > 100 µM | > 100 µM | 31.1 µM | 22.6 µM | > 100 µM | > 100 µM | > 100 µM
